Test results: the NIST ThermoML archive (doi:10.1016/j.jct.2015.08.014)

How the values were obtained:
[1] = xn = mol fraction of the nth substance listed; details: 100 kPa, Liquid, x2 = 0; for viscosity: Capillary tube (Ostwald / Ubbelohde) method; for mass density: Vibrating tube method
[2] = 101.33 kPa, Liquid; for viscosity: Capillary tube (Ostwald / Ubbelohde) method; for mass density: Vibrating tube method

O=C1CCCO1 [γ-butyrolactone] + CCCC[N+]1(C)CCCC1.N#CN=C=[N-]
[1]
Details	mass density [kg/m3]	viscosity [mPa·s]
273.15 K	1149.15	2.69
283.15 K	1139.31	2.21
293.15 K	1129.49	1.86
298.15 K	1124.59	1.71
303.15 K	1119.68	1.58
313.15 K	1109.87	1.37
323.15 K	1100.05	1.2

O=C1CCCO1 [γ-butyrolactone]
[2]
Details	mass density [kg/m3]	viscosity [mPa·s]
273.15 K	1149.15	2.69
278.15 K	1144.23	2.43
283.15 K	1139.31	2.21
288.15 K	1134.4	2.02
293.15 K	1129.49	1.86
298.15 K	1124.59	1.71
303.15 K	1119.68	1.58
308.15 K	1114.78	1.47
313.15 K	1109.87	1.37
318.15 K	1104.96	1.28
323.15 K	1100.05	1.2
328.15 K	1095.14	–
333.15 K	1090.22	–
